From ChEMBL document CHEMBL4007488, “Amphiphilic Indole Derivatives as Antimycobacterial Agents: Structure-Activity Relationships and Membrane Targeting Properties” (J Med Chem, 2017)
In brackets after ≈: the same amount, converted by molar mass. Activity calls are given as the source filed them. The calls are words filed in the database; no cut-off is given here.

Columns and labels:
[1] = system: Vero C1008; experiment: Cytotoxicity against African green monkey Vero E6 cells assessed as reduction in cell viability after 48 hrs by 96 aqueous one-based assay; conditions: Chlorocebus sabaeus, Vero C1008, 48 h
[2] = system: Mycobacterium tuberculosis; experiment: Antimycobacterial activity against Mycobacterium tuberculosis H37Rv ATCC 27294 assessed as growth inhibition at 10 uM after 5 days relative to control; format: functional; conditions: H37Rv ATCC 27294, 120 h, read-out: GI
[3] = Half life in rat liver microsomes preincubated for 5 mins followed by NADPH addition measured up to 45 mins by LC-MS analysis; format: ADME, microsome
[4] = Selectivity index, ratio of IC50 for African green monkey Vero E6 cells to MIC50 for Mycobacterium tuberculosis H37Rv ATCC 27294; format: toxicity, Vero C1008; conditions: read-out: Selectivity Index
[5] = system: HepG2; experiment: Cytotoxicity against human HepG2 cells assessed as reduction in cell viability after 48 hrs by MTT assay; format: cell-based; conditions: HepG2, 48 h
[6] = Aqueous solubility of compound at pH 7.4 at 25 degC after 24 hrs; format: physicochemical; conditions: buffer
[7] = system: Mycobacterium tuberculosis; experiment: Antimycobacterial activity against Mycobacterium tuberculosis H37Rv ATCC 27294 after 5 days by broth dilution method; format: functional; conditions: H37Rv ATCC 27294, 120 h
[8] = system: Mycolicibacterium smegmatis; experiment: Antimycobacterial activity against Mycobacterium smegmatis MC2 155 ATCC 700084 assessed as growth inhibition at 10 uM after 5 days relative to control; format: functional; conditions: MC2 155 ATCC 700084, 120 h, read-out: GI
[9] = Selectivity index, ratio of IC50 for human HepG2 cells to MIC50 for Mycobacterium tuberculosis H37Rv ATCC 27294; format: toxicity; conditions: read-out: Selectivity Index
[10] = system: Lipid bilayer; experiment: Binding affinity to DMPG vesicles assessed as change in enthalpy by differential scanning calorimetric analysis
[11] = system: Lipid bilayer; experiment: Binding affinity to DMPG vesicles assessed as increase in width at 1/2 height of endotherm of compound containing vesicles by differential scanning calorimetric analysis
[12] = system: Lipid bilayer; experiment: Binding affinity to DMPG vesicles assessed as melting transition temperature by differential scanning calorimetric analysis (reference value: 21.09 to 23.32 degC)
[13] = Therapeutic index, ratio of HC50 for human RBC to MIC50 for Mycobacterium tuberculosis H37Rv ATCC 27294
[14] = system: Mycobacterium avium; experiment: Antimycobacterial activity against Mycobacterium avium 11 after 4 days; format: functional; conditions: Mycobacterium avium, 11, 96 h
[15] = system: Staphylococcus aureus; experiment: Antibacterial activity against Staphylococcus aureus ATCC 29213 after 18 hrs; format: functional; conditions: ATCC 29213, 18 h
[16] = system: Escherichia coli; experiment: Antibacterial activity against Escherichia coli ATCC 25922 after 18 hrs; format: functional
[17] = system: Mycobacteroides abscessus; experiment: Antimycobacterial activity against Mycobacterium abscessus Bamboo after 3 days; format: functional; conditions: 72 h

SMILES | inhibition of growth at 10 µM [2] [%] | selectivity ratio [4] | inhibition of growth at 10 µM [8] [%] | deltaH [10] [kcal/mol] | Tm [12] [°C] | other results
CCCCCCCCn1cc(CNC23CC4CC(CC(C4)C2)C3)c2c(F)cccc21 | 99 | 8 | 99 | – | – | IC50 [1]: 16 µM; half-life [3]: 15.9 min; IC50 [5]: 13 µM; solubility at 24 h [6]: 10.2 µM (≈ 4.19 µg/mL); MIC50 [7]: 2 µM (≈ 0.821 µg/mL); MIC90 [7]: 3 µM (≈ 1.23 µg/mL); selectivity ratio [9]: 6.5
CCCCCCCCCCCCn1cc(CN2CCCCCC2)c2c(F)cccc21 | 99 | – | 99 | -0.44 | 18.8 | Activity [11]: inactive
Fc1cccc2[nH]cc(CN3CCCCCC3)c12 | 99 | – | 99 | -4.83 | 20.4 | –
CCCCCCn1cc(CN2CCCCCC2)c2c(F)cccc21 | 99 | – | 99 | -1.52 | 19 | –
CCCCCCCCn1cc(CN2CCCCCC2)c2c(F)cccc21 | 99 | 12.7 | 99 | -1.39 | 18 | TI [13]: 15 to 30; IC50 [1]: 29.2 µM; MIC50 [14]: 2 µM (≈ 0.717 µg/mL); half-life [3]: 560 min; MIC50 [15]: 8 µM (≈ 2.87 µg/mL); IC50 [5]: 19.2 µM; solubility at 24 h [6]: 35.9 µM (≈ 12.9 µg/mL); Activity [11]: Active; Activity [16]: inactive; MIC50 [7]: 2.3 µM (≈ 0.825 µg/mL); MIC90 [7]: 5 µM (≈ 1.79 µg/mL); MIC50 [17]: 19 µM (≈ 6.81 µg/mL); selectivity ratio [9]: 8.3
CCCCCCCCn1cc(CN2CCC(C)CC2)c2ccc(OC)cc21 | 99 | 21.5 | 99 | -1.63 | 18.9 | TI [13]: 15 to 30; IC50 [1]: 32.2 µM; half-life [3]: 5.5 min; IC50 [5]: 15.7 µM; solubility at 24 h [6]: 44.9 µM (≈ 16.6 µg/mL); MIC50 [7]: 1.5 µM (≈ 0.556 µg/mL); MIC90 [7]: 3.3 µM (≈ 1.22 µg/mL); selectivity ratio [9]: 10.5
CCCCCCCCCCn1cc(CN2CCCCCC2)c2c(F)cccc21 | 99 | – | 99 | -0.963 | 18.6 | Activity [11]: inactive
CCCCCCCCn1cc(CN2CCC(C)CC2)c2c(F)cccc21 | 99 | 11.7 | 99 | -2.69 | 19.8 | IC50 [1]: 35.2 µM; half-life [3]: 22.8 min; IC50 [5]: 15.6 µM; solubility at 24 h [6]: 23.2 µM (≈ 8.32 µg/mL); MIC50 [7]: 3 µM (≈ 1.08 µg/mL); MIC90 [7]: 6 µM (≈ 2.15 µg/mL); selectivity ratio [9]: 5.2
CCCCn1cc(CN2CCCCCC2)c2c(F)cccc21 | 99 | – | 99 | -3.3 | 19 | –
CCCCCCCCn1cc(CN2CCC3(CC2)OCCO3)c2c(F)cccc21 | 99 | 7.3 | 99 | -1.7 | 19.4 | IC50 [1]: 38.9 µM; IC50 [5]: 21.8 µM; MIC50 [7]: 5.3 µM (≈ 2.13 µg/mL); MIC90 [7]: 10.6 µM (≈ 4.27 µg/mL); selectivity ratio [9]: 4.1
CCCCCCCCn1cc(CN2CCC3(CC2)OCCO3)c2ccc(OC)cc21 | 99 | 38.4 | 99 | -1.59 | 18.1 | TI [13]: 15 to 30; IC50 [1]: 46.1 µM; half-life [3]: 27.9 min; IC50 [5]: 15.7 µM; solubility at 24 h [6]: 31.3 µM (≈ 13 µg/mL); MIC50 [7]: 1.2 µM (≈ 0.498 µg/mL); MIC90 [7]: 2.3 µM (≈ 0.954 µg/mL); selectivity ratio [9]: 13.1
CCCCCCCCn1cc(CN2CCCCC2)c2c(OC)cccc21 | 99 | – | 99 | – | – | –
CCCCCCCCn1cc(CN2CCC3(CC2)OCCO3)c2ccc(F)cc21 | 99 | 15.8 | 99 | -2.15 | 18.5 | IC50 [1]: 47.5 µM; IC50 [5]: 25.5 µM; MIC50 [7]: 3 µM (≈ 1.21 µg/mL); MIC90 [7]: 6 µM (≈ 2.42 µg/mL); selectivity ratio [9]: 8.5
CCCCCCCCn1cc(CN(C)C)c2cc(F)ccc21 | 99 | – | 99 | – | – | –
CCCCCCCCn1cc(CNC23CC4CC(CC(C4)C2)C3)c2cccc(OC)c21 | 99 | – | 99 | – | – | –
CCCCCCCCn1cc(C(=O)N2CCCCCC2)c2cc(F)ccc21 | 99 | – | 99 | -2.52 | 18.9 | Activity [11]: inactive
Fc1ccc2c(c1)c(CN1CCCCC1)cn2CCCOc1ccccc1 | 99 | – | 99 | – | – | –
CC(C)=CCC/C(C)=C/Cn1cc(CN2CCCCC2)c2cc(Cl)ccc21 | 99 | – | 99 | – | – | –
CCCCCCCCn1cc(CNC23CC4CC(CC(C4)C2)C3)c2ccc(F)cc21 | 99 | – | 99 | – | – | –
CCCCCCCCn1cc(CN2CCC(C)CC2)c2cccc(OC)c21 | 99 | – | 99 | – | – | –
CCn1cc(CN2CCCCCC2)c2c(F)cccc21 | 99 | – | 99 | -3.44 | 19.8 | –
CCCCCCCCn1ccc2c(F)cccc21 | 99 | – | 99 | -3.34 | 19.9 | Activity [11]: inactive
CCCCCCCCn1cc(CN2CCCCCC2)c2ccc(OC)cc21 | 99 | – | 99 | – | – | –
CC(C)=CCC/C(C)=C/Cn1cc(CN2CCCCC2)c2cc(F)ccc21 | 99 | 6 | 99 | – | – | solubility at 24 h [6]: 25 µM (≈ 9.21 µg/mL)
CCCCCCCCn1cc(CN2CCCCCC2)c2cc(F)ccc21 | 99 | – | 99 | – | – | –
CCCCCCCCn1cc(CNC23CC4CC(CC(C4)C2)C3)c2cc(F)ccc21 | 99 | – | 99 | – | – | –
